Where a SMILES comes first, the peptide text is derived from it. Bridges are numbered along the chain shown (N, C = ends). Roman numbers before positions name the chains, in order. [ ]: non-standard residue; d: D form. The star is where a group is joined. NαAmidinoTrp = N=C(N)N[C@@H](Cc1c[nH]c2ccccc12)C(=O)*; Cha = N[C@@H](CC1CCCCC1)C(=O)O; aThr = C[C@H](O)[C@H](N)C(=O)O; Tle = CC(C)(C)[C@H](N)C(=O)O; dDab = NCC[C@@H](N)C(=O)O; Nle = CCCC[C@H](N)C(=O)O; Orn = NCCC[C@H](N)C(=O)O; Dab = NCC[C@H](N)C(=O)O; Dap = NC[C@H](N)C(=O)O; Sar = CNCC(=O)O
Key:
Type in all cases: cell-based
[1] = tested on: Acinetobacter baumannii 872842; conditions: 872842
[2] = tested on: Acinetobacter baumannii DSM 30008; conditions: DSM 30008
Summary of the method: (§1)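 Antibacterial activity is measured as MIC (μg/mL) by standard CLSI microdilution. Inocula of about 10^6 CFU/mL in MH-II broth meet two-fold peptide dilutions in medium with 0.002% Polysorbate 80, and growth is scored visually after 18-20 hours at 35° C.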

[3] = tested on: Escherichia coli 926415; conditions: 926415
[4] = tested on: Escherichia coli ATCC 25922; conditions: ATCC 25922
Summary of the method: as §1

[5] = tested on: Klebsiella pneumoniae 968733; conditions: 968733
[6] = tested on: Klebsiella pneumoniae SSI #3010; conditions: SSI #3010
Summary of the method: as §1

[7] = tested on: Pseudomonas aeruginosa ATCC 27853; conditions: ATCC 27853
Summary of the method: as §1

[8] = tested on: human red blood cells (hRBC); test: Hemolysis of human red blood cells; conditions: red cells of human, 1 h
Summary of the method: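 Fresh human red blood cells are washed in PBS, then shaken with peptide (100 μg/mL) at 37° C. for 1 h, final erythrocyte density about 0.9×10^9 cells/mL. After centrifugation, diluted supernatants are read at 540 nm against buffer (0%) and Triton X-100 (100%) lysis controls.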

SMILES	Acinetobacter baumannii 872842 MIC [1]	Acinetobacter baumannii DSM 30008 MIC [2]	Escherichia coli 926415 MIC [3]	Escherichia coli ATCC 25922 MIC [4]	Klebsiella pneumoniae 968733 MIC [5]	Klebsiella pneumoniae SSI #3010 MIC [6]	Pseudomonas aeruginosa ATCC 27853 MIC [7]	Hemolysis at 100 μg/mL ([8]; 100 μg/mL)	Hemolysis at 100 μg/mL [8]; 100
CC(C)C[C@@H]1NC(=O)[C@@H](CC(C)C)NC(=O)[C@H](CCN)NC(=O)[C@@H](NC(=O)[C@H](CCN)NC(=O)[C@@H](NC(=O)[C@H](CCN)NC(=O)[C@@H](C)NC(=O)[C@@H]2CSSC[C@H](NC(=O)[C@H](Cc3c[nH]c4ccccc34)NC(=N)N)C(=O)N[C@@H](C(C)C)C(=O)N[C@@H](C)C(=O)N[C@@H](CO)C(=O)N3CCC[C@@H]3C(=O)N3CCC[C@H]3C(=O)N[C@@H](CC(C)C)C(=O)N[C@@H](CO)C(=O)N[C@@H](Cc3ccc(O)cc3)C(=O)N2)[C@@H](C)O)CCNC(=O)[C@H]([C@@H](C)O)NC(=O)[C@H](CCN)NC(=O)[C@H](CCN)NC1=O [Ex. 135] (NαAmidinoTrp-CVAS[dP]PLSYC[dA][Dab]T[Dab][Dab][Dab][dL]L[Dab][Dab]T; disulfide 1-10; lactam 15-C)	0.5 µg/mL	0.25 µg/mL	1 µg/mL	0.125 µg/mL	8 µg/mL	0.5 µg/mL	0.5 µg/mL	1%	–
CC(C)C[C@@H]1NC(=O)[C@@H](CC(C)C)NC(=O)[C@H](CCN)NC(=O)[C@@H](NC(=O)[C@H](CCN)NC(=O)[C@H](CCN)NC(=O)[C@@H](CCN)NC(=O)[C@H](CCCN)NC(=O)[C@@H]2CSSC[C@H](NC(=O)[C@@H](N)Cc3c[nH]c4ccccc34)C(=O)N[C@@H](C(C)C)C(=O)N[C@@H](CO)C(=O)N[C@@H](CO)C(=O)N3CCC[C@@H]3C(=O)N3CCC[C@H]3C(=O)N[C@@H](C(C)C)C(=O)N[C@@H](CN)C(=O)N[C@@H](Cc3ccc(O)cc3)C(=O)N2)CCNC(=O)[C@H]([C@@H](C)O)NC(=O)[C@H](CCN)NC(=O)[C@H](CCN)NC1=O [Ex. 148] (H-WCVSS[dP]PV[Dap]YC[Orn][dDab][Dab][Dab][Dab][Dab][dL]L[Dab][Dab]T; disulfide 2-11; lactam 16-C)	0.25 µg/mL	0.5 µg/mL	0.5 µg/mL	0.25 µg/mL	4 µg/mL	1 µg/mL	0.125 µg/mL	<1%	–
CC(C)C[C@@H]1NC(=O)[C@H]([C@@H](C)O)NC(=O)[C@H]2CCCN2C(=O)[C@H](CO)NC(=O)[C@H](C)NC(=O)[C@H](C(C)C)NC(=O)[C@@H](NC(=O)[C@@H](N)Cc2c[nH]c3ccccc23)CSSC[C@@H](C(=O)NCC(=O)N[C@@H](CCN)C(=O)N[C@H](C(=O)N[C@@H](CCN)C(=O)N[C@H]2CCNC(=O)[C@H]([C@@H](C)O)NC(=O)[C@H](CCN)NC(=O)[C@H](CCN)NC(=O)[C@H](CC(C)C)NC(=O)[C@@H](CC(C)C)NC(=O)[C@H](CCN)NC2=O)[C@@H](C)O)NC(=O)[C@H](Cc2ccc(O)cc2)NC(=O)[C@H](CO)NC1=O [Ex. 126] (H-WCVAS[dP]TLSYCG[Dab]T[Dab][Dab][Dab][dL]L[Dab][Dab]T; disulfide 2-11; lactam 16-C)	0.125 µg/mL	0.0625 µg/mL	0.5 µg/mL	0.0625 µg/mL	0.5 µg/mL	0.0625 µg/mL	0.5 µg/mL	1%	–
CC(C)C[C@@H]1NC(=O)[C@@H](CC(C)C)NC(=O)[C@H](CCN)NC(=O)[C@@H](NC(=O)[C@H](CCN)NC(=O)[C@@H](NC(=O)[C@H](CCN)NC(=O)CN(C)C(=O)[C@@H]2CSSC[C@H](NC(=O)[C@@H](N)CC(C)C)C(=O)N[C@@H](C(C)C)C(=O)N[C@@H](CO)C(=O)N[C@@H](CO)C(=O)N3CCC[C@@H]3C(=O)N3CCC[C@H]3C(=O)N[C@@H](CC(C)C)C(=O)N[C@@H](CN)C(=O)N[C@@H](Cc3ccc(O)cc3)C(=O)N2)[C@@H](C)O)CCNC(=O)[C@H]([C@@H](C)O)NC(=O)[C@H](CCN)NC(=O)[C@H](CCN)NC1=O [Ex. 159] (H-LCVSS[dP]PL[Dap]YC[Sar][Dab]T[Dab][Dab][Dab][dL]L[Dab][Dab]T; disulfide 2-11; lactam 16-C)	0.25 µg/mL	0.5 µg/mL	2 µg/mL	0.5 µg/mL	8 µg/mL	1 µg/mL	2 µg/mL	<1%	–
CC(C)C[C@@H]1NC(=O)[C@@H](CC(C)C)NC(=O)[C@H](CCN)NC(=O)[C@@H](NC(=O)[C@H](CCN)NC(=O)CN(C)C(=O)C[C@@H]2NC(=O)[C@H](CCCN)NC(=O)[C@H](CCN)NC(=O)[C@H](Cc3ccc(O)cc3)NC(=O)[C@H](CO)NC(=O)[C@H](CC(C)C)NC(=O)[C@@H]3CCCN3C(=O)[C@H]3CCCN3C(=O)[C@H](Cc3ccc(O)cc3)NC(=O)[C@H](C)NC(=O)[C@H](C(C)(C)C)NC(=O)[C@H](CCN)NC(=O)[C@H](Cc3c[nH]c4ccccc34)NC(=O)[C@H](CCN)NC2=O)CCNC(=O)[C@H]([C@@H](C)O)NC(=O)[C@H](CCN)NC(=O)[C@H](CCN)NC1=O [Ex. 77] (I: cyclo(LSY[Dab][Orn]D[Dab]W[Dab][Tle]AY[dP]P) / II: [Sar][Dab][Dab][Dab][dL]L[Dab][Dab]T; amide I:6-II:N; lactam II:3-II:C)	2 µg/mL	1 µg/mL	0.5 µg/mL	1 µg/mL	2 µg/mL	1 µg/mL	1 µg/mL	–	<1%
CC(C)C[C@@H]1NC(=O)[C@@H](CC(C)C)NC(=O)[C@H](CCN)NC(=O)[C@@H](NC(=O)[C@H](CCN)NC(=O)[C@@H](NC(=O)[C@H](CCN)NC(=O)CC[C@@H]2NC(=O)[C@H](CCN)NC(=O)[C@H](Cc3ccc(O)cc3)NC(=O)[C@H](CO)NC(=O)[C@H](CC(C)C)NC(=O)[C@@H]3CCCN3C(=O)[C@H]3CCCN3C(=O)[C@H](Cc3ccc(O)cc3)NC(=O)[C@H]([C@@H](C)O)NC(=O)[C@H](C(C)C)NC(=O)[C@H](CCN)NC(=O)[C@H](Cc3c[nH]c4ccccc34)NC(=O)[C@H](CCN)NC(=O)[C@@H](CCN)NC2=O)[C@@H](C)O)CCNC(=O)[C@H]([C@@H](C)O)NC(=O)[C@H](CCN)NC(=O)[C@H](CCN)NC1=O [Ex. 96] (I: cyclo(W[Dab]VTY[dP]PLSY[Dab]E[dDab][Dab]) / II: [Dab]T[Dab][Dab][Dab][dL]L[Dab][Dab]T; amide I:12-II:N; lactam II:4-II:C)	1 µg/mL	0.25 µg/mL	0.25 µg/mL	0.125 µg/mL	1 µg/mL	0.25 µg/mL	0.5 µg/mL	–	4%
CC(=O)N[C@@H](Cc1c[nH]c2ccccc12)C(=O)N[C@H]1CSSC[C@@H](C(=O)N[C@@H](CCCN)C(=O)N[C@H](C(=O)N[C@@H](CCN)C(=O)N[C@H]2CCNC(=O)[C@H]([C@@H](C)O)NC(=O)[C@H](CCN)NC(=O)[C@H](CCN)NC(=O)[C@H](CC(C)C)NC(=O)[C@@H](Cc3ccccc3)NC(=O)[C@H](CCN)NC2=O)[C@@H](C)O)NC(=O)[C@H](CC2CCCCC2)NC(=O)[C@H](Cc2c[nH]cn2)NC(=O)[C@H](CC(C)C)NC(=O)[C@@H]2CCCN2C(=O)[C@H]2CCCN2C(=O)[C@H]([C@H](C)O)NC(=O)[C@H](C)NC(=O)[C@H](C(C)(C)C)NC1=O [Ex. 113] (Ac-WC[Tle]A[aThr][dP]PLH[Cha]C[Orn]T[Dab][Dab][Dab][dF]L[Dab][Dab]T; disulfide 2-11; lactam 15-C)	0.25 µg/mL	1 µg/mL	0.5 µg/mL	1 µg/mL	4 µg/mL	2 µg/mL	1 µg/mL	5%	–
CCCC[C@@H]1NC(=O)[C@@H]2CCCN2C(=O)[C@H]2CCCN2C(=O)[C@H](CO)NC(=O)[C@H](CO)NC(=O)[C@H](C(C)(C)C)NC(=O)[C@H](CCN)NC(=O)[C@H](Cc2c[nH]c3ccccc23)NC(=O)[C@@H](N)CSSC[C@@H](C(=O)N[C@@H](CCN)C(=O)N[C@H](CCN)C(=O)N[C@H]2CCNC(=O)[C@H]([C@@H](C)O)NC(=O)[C@H](CCN)NC(=O)[C@H](CCN)NC(=O)[C@H](CC(C)C)NC(=O)[C@@H](Cc3ccccc3)NC(=O)[C@H](CCN)NC2=O)NC(=O)[C@H](CCCN)NC(=O)[C@H](CCN)NC(=O)[C@H](Cc2ccc(O)cc2)NC(=O)[C@H](CO)NC1=O [Ex. 205] (H-CW[Dab][Tle]SS[dP]P[Nle]SY[Dab][Orn]C[Dab][dDab][Dab][Dab][dF]L[Dab][Dab]T; disulfide 1-14; lactam 17-C)	0.5 µg/mL	2 µg/mL	0.5 µg/mL	0.25 µg/mL	2 µg/mL	2 µg/mL	0.25 µg/mL	<1%	–

— US10829520B2, “Beta-hairpin peptidomimetics” (POLYPHOR AG, priority 2015, dated 2020)
